From patent US12281113B2, “Crystalline forms of a KRas G12C inhibitor” (MIRATI THERAPEUTICS, INC., priority 2020, dated 2025)
Values joined by “and” are separate entries in the source; they are usually repeats but may differ in a detail not shown here. Equal entries are not always repeated.

Assays:
Assay type in all cases: physicochemical
[1] = 1 month stability of MRTX849 crystalline vs amorphous, HPLC evaluation after accelerated stress conditions
[2] = Photostability study (1/2 ICH conditions)
Protocol: (§1) 40° C./75% RH and 60° C. in loosely capped, foil-wrapped small glass vials. Data was obtained for up to two weeks for samples stored at 60° C. and up to two months for samples stored at 25° C./60% RH and 40° C./75% RH. In addition, data was generated from photostability study performed on all three lots as a part of the protocol.

[3] = Comparative thermal stability study of Form A, Form B and amorphous MRTX849 Drug Substance; conditions: for change in appearance on storage: two weeks at 60° C., two months at 25° C./60% RH and 40° C./75% RH
Protocol: as §1

[4] = Dynamic vapor sorption isotherm, 25° C., 0-90% RH; conditions: for weight gain (DVS): sorption
Protocol: (§2) Sorption isotherms of crystalline Form A were obtained using a SMS GVS Intrinsic moisture sorption analyzer, controlled by GVS Intrinsic Control software. The sample temperature was maintained at 25° C. by the instrument controls. The humidity was controlled by mixing streams of dry and wet nitrogen, with a total flow rate of 200 ml/min. The relative humidity was measured by a calibrated Rotronic probe (dynamic range of 1.0-100% RH), located near the sample. The weight change (mass relaxation) of the sample as a function of % RH was constantly monitored by a microbalance (accuracy ±0.005 mg).
(§3) The sample was loaded and unloaded at 40% RH and 25° C. (typical room conditions). A moisture sorption isotherm was performed as outlined below (2 scans per complete cycle). The standard isotherm was performed at 25° C. at 10% RH intervals over a 0-90% RH range. A double cycle (4 scans) was carried out. Data analysis was carried out within Microsoft Excel using the DVS Analysis Suite.
as §2, with “B” for “A”, “DVS” for “GVS”, “change,” for “change”
as §3, with “Briefly, a sample of crystalline Form B was placed in a tared mesh stainless steel basket under ambient conditions. The sample” for “The sample”

[5] = Dynamic vapor sorption, 5% to 95% RH
Protocol: Vapor Sorption isotherms were obtained using a Surface Measurement System (SMS) DVS Intrinsic moisture sorption analyzer, controlled by DVS Intrinsic Control software. Samples were not dried prior to analysis. Sorption and desorption data were collected over a range of 5%-95% relative humidity (RH) at 10% RH increments under a nitrogen purge. The equilibrium criterion used for analysis was less than 0.0100% weight change in 5 minutes with a maximum equilibration time of 3 hours.
Vapor sorption data were collected on a Surface Measurement System DVS Intrinsic instrument. Samples were not dried prior to analysis. Sorption and desorption data were collected over a range from 5% to 95% RH at 10% RH increments under a nitrogen purge. The equilibrium criterion used for analysis was less than 0.0100% weight change in 5 minutes with a maximum equilibration time of 3 hours.

[6] = 0.5 × ICH: Vis Stress at 600 klux-hrs, UV Stress at 100 W-hr/m^2

| SMILES | Purity [2, 6] | Purity ([2]; Control) | Purity ([2]; T(0)) | Appearance ([3]; 1 Month 25° C./60% RH) | Total impurities ([3]; 1 Month 25° C./60% RH) [%] | Appearance ([3]; 1 Month 40° C./75% RH) | Total impurities ([3]; 1 Month 40° C./75% RH) [%] | Appearance ([3]; 1 Week 60° C.) | Total impurities ([3]; 1 Week 60° C.) [%] | Appearance ([3]; 2 Months 25° C./60% RH) | Total impurities ([3]; 2 Months 25° C./60% RH) [%] | Appearance ([3]; 2 Months 40° C./75% RH) | Total impurities ([3]; 2 Months 40° C./75% RH) | Appearance ([3]; 2 Weeks 40° C./75% RH) | Total impurities ([3]; 2 Weeks 40° C./75% RH) [%] | Appearance ([3]; 2 Weeks 60° C.) | Total impurities ([3]; 2 Weeks 60° C.) | Appearance ([3]; Initial T(0)) | weight gain (DVS) ([4]; at 90% RH) [%] | change in appearance on storage [3] | also measured |
| --- | --- | --- | --- | --- | --- | --- | --- | --- | --- | --- | --- | --- | --- | --- | --- | --- | --- | --- | --- | --- | --- |
| C=C(F)C(=O)N1CCN(c2nc(OC[C@@H]3CCCN3C)nc3c2CCN(c2cccc4cccc(Cl)c24)C3)C[C@@H]1CC#N [API standard] | – | – | – | – | – | – | – | – | – | – | – | – | – | – | – | – | – | – | – | – | Total impurities (%) ([1]; API standard): 0.71% |
| C=C(F)C(=O)N1CCN(c2nc(OC[C@@H]3CCCN3C)nc3c2CCN(c2cccc4cccc(Cl)c24)C3)C[C@@H]1CC#N [Amorphous, 2-[(2S)-4-[7-(8-chloro-1-naphthyl)-2-[[(2S)-1-methylpyrrolidin-2-yl]methoxy]-6,8-dihydro-5H-pyrido[3,4-d]pyrimidin-4-yl]-1-(2-fluoroprop-2-enoyl)piperazin-2-yl]acetonitrile] | 91.25 | 98.42 | 98.59 | Tan Solid | 1.42 | Tan Solid | 2.36 | Brown Solid | 5.93 | Tan Solid | 1.86 | Light Brown | 5.73% | Tan Solid | 1.95 | Brown Solid | 9.89% | Tan Solid | – | – | Total impurities ([3]; 2 Months 40° C./75% RH, listed as amorphous material): 5.7%; Total impurities ([3]; 2 Weeks 60° C., listed as amorphous material): 9.9%; Color change on storage ([3]; 60° C. condition and after two months at 40° C./75% RH): changed from tan to brown/light brown; Total impurities ([3]; Initial T(0), listed as amorphous material): 1.4%; Total impurities (%) ([1]; 25° C./60% RH, 1 month): 2.21%; Total impurities (%) ([1]; 40° C./75% RH, 1 month, open): 2.98%; Total impurities (%) ([1]; 40° C./75% RH, 1 month, listed as MRTX849 amorphous): 3.28% |
| C=C(F)C(=O)N1CCN(c2nc(OC[C@@H]3CCCN3C)nc3c2CCN(c2cccc4cccc(Cl)c24)C3)C[C@@H]1CC#N [Form A, 2-[(2S)-4-[7-(8-chloro-1-naphthyl)-2-[[(2S)-1-methylpyrrolidin-2-yl]methoxy]-6,8-dihydro-5H-pyrido[3,4-d]pyrimidin-4-yl]-1-(2-fluoroprop-2-enoyl)piperazin-2-yl]acetonitrile Form A] | 96.74 | 98.91 | 98.86 | Off-white | 0.98 | Off-white | 1.04 | Off-white | 1.27 | Off-white | 1.06 | Off-white | 1.2% and 1.16% | Off-white | 1.07 | Off-white | 1.4% and 1.43% | Off-white | 0.6 | no change in appearance | weight gain (DVS) ([4]; at 40% RH): about 0.1%; observed weight gain (DVS) ([5]; from 5% to 90% RH): 0.4% |
| C=C(F)C(=O)N1CCN(c2nc(OC[C@@H]3CCCN3C)nc3c2CCN(c2cccc4cccc(Cl)c24)C3)C[C@@H]1CC#N [Form B, 2-[(2S)-4-[7-(8-chloro-1-naphthyl)-2-[[(2S)-1-methylpyrrolidin-2-yl]methoxy]-6,8-dihydro-5H-pyrido[3,4-d]pyrimidin-4-yl]-1-(2-fluoroprop-2-enoyl)piperazin-2-yl]acetonitrile Form B] | 98.41 | 99.74 | 99.75 | Creamy | 0.23 | Creamy | 0.35 | Creamy | 0.31 | Creamy | – | Creamy | 0.4% and 0.44% | Creamy | 0.37 | Creamy | 0.4% | Creamy | 2.5 | no change in appearance | weight change (DVS) on desorption ([4]; at 50% RH after desorption from 70% RH): 0.4%; weight gain (DVS) ([4]; at 60% RH): about 0.6%; weight change (DVS) on desorption ([4]; at 70% RH after desorption from 90% RH): 2.2%; weight gain (DVS) ([4]; at 70% RH): 2.9%; Total impurities ([3]; Initial T(0)): 0.3%; water corresponding to DVS weight gain ([5]; 5% to 95% RH): 1.3 mol water; weight gain (DVS) ([5]; between 5% and 55% RH): 0.2 wt %; weight gain increase (DVS) ([5]; between 55% and 95% RH): 3.5% |
| C=C(F)C(=O)N1CCN(c2nc(OC[C@@H]3CCCN3C)nc3c2CCN(c2cccc4cccc(Cl)c24)C3)C[C@@H]1CC#N [Form E, 2-[(2S)-4-[7-(8-chloro-1-naphthyl)-2-[[(2S)-1-methylpyrrolidin-2-yl]methoxy]-6,8-dihydro-5H-pyrido[3,4-d]pyrimidin-4-yl]-1-(2-fluoroprop-2-enoyl)piperazin-2-yl]acetonitrile Form E] | – | – | – | – | – | – | – | – | – | – | – | – | – | – | – | – | – | – | – | – | gradual weight gain (DVS) ([5]; between 5% to 96% RH): 1.2% |
| C=C(F)C(=O)N1CCN(c2nc(OC[C@@H]3CCCN3C)nc3c2CCN(c2cccc4cccc(Cl)c24)C3)C[C@@H]1CC#N [MRTX849 crystalline, 2-[(2S)-4-[7-(8-chloro-1-naphthyl)-2-[[(2S)-1-methylpyrrolidin-2-yl]methoxy]-6,8-dihydro-5H-pyrido[3,4-d]pyrimidin-4-yl]-1-(2-fluoroprop-2-enoyl)piperazin-2-yl]acetonitrile] | – | – | – | – | – | – | – | – | – | – | – | – | – | – | – | – | – | – | – | – | Total impurities (%) ([1]; 40° C./75% RH, 1 month): 0.77% |
